From ChEMBL document CHEMBL3616440, “Non-basic azolotriazinone MCHR1 antagonists for the treatment of obesity: An empirical brain-exposures-driven candidate selection for in vivo efficacy studies” (Bioorg Med Chem Lett, 2015)

Experiments:
[1] = target: T1, Melanin-concentrating hormone receptor 1 (Homo sapiens, UniProt Q99705); test: Displacement of [125I][Phe13,Tyr19]-MCH from human MCHR1 expressed in HEK293 cells by scintillation counting analysis; format: cell-based
[2] = target: Melanin-concentrating hormone receptor 1 (Rattus norvegicus, UniProt P97639); test: Displacement of [125I][Phe13,Tyr19]-MCH from rat MCHR1 by scintillation counting analysis
[3] = tested on: Rattus norvegicus; test: Drug level in oral-dosed Sprague-Dawley rat treated with 1-(4-(6-(4-chlorophenyl)-4-oxothieno[3,2-d]pyrimidin-3(4H)-yl)-2-methoxyphenoxy)-2-methylpropan-2-yl 2-aminoacetate; format: ADME, organism-based; conditions: in vivo
[4] = target: T1, Melanin-concentrating hormone receptor 1; test: Antagonist activity at human MCHR1 expressed in HEK293 cells assessed as inhibition of MCH-induced Ca2+ influx for 120 mins by FLIPR assay; format: functional, cell-based
[5] = target: T2, Voltage-gated inwardly rectifying potassium channel KCNH2 (Homo sapiens, UniProt Q12809); test: Inhibition of human ERG by flux assay
[6] = tested on: Plasma; test: Plasma concentration in Sprague-Dawley rat assessed as 6-(5-chloropyridin-2-yl)-3-(4-(2-cyclopropyl-2-hydroxyethoxy)-3-methoxyphenyl)pyrrolo[1,2-f][1,2,4]triazin-4(3H)-one level at 10 mg/kg, po qd at 8 hrs; format: ADME, organism-based; conditions: in vivo
[7] = tested on: Brain; test: Drug concentration in Sprague-Dawley rat brain assessed as 6-(5-chloropyridin-2-yl)-3-(4-(2-cyclopropyl-2-hydroxyethoxy)-3-methoxyphenyl)pyrrolo[1,2-f][1,2,4]triazin-4(3H)-one level at 10 mg/kg, po qd at 8 hrs; format: ADME, organism-based; conditions: in vivo, read-out: Drug uptake
[8] = tested on: Nucleic Acid; test: Ratio of drug level in Sprague-Dawley rat brain to plasma assessed as 6-(5-chloropyridin-2-yl)-3-(4-(2-cyclopropyl-2-hydroxyethoxy)-3-methoxyphenyl)pyrrolo[1,2-f][1,2,4]triazin-4(3H)-one level at 10 mg/kg, po qd; format: ADME, organism-based
[9] = tested on: Plasma; test: Plasma concentration in Sprague-Dawley rat assessed as 6-(4-chlorophenyl)-3-(4-((3S,4R)-3,4-dihydroxypyrrolidin-1-yl)-3-methoxyphenyl)pyrrolo[1,2-f][1,2,4]triazin-4(3H)-one level at 10 mg/kg, po qd at 8 hrs; format: ADME, organism-based; conditions: in vivo
[10] = tested on: Brain; test: Drug concentration in Sprague-Dawley rat brain assessed as 6-(4-chlorophenyl)-3-(4-((3S,4R)-3,4-dihydroxypyrrolidin-1-yl)-3-methoxyphenyl)pyrrolo[1,2-f][1,2,4]triazin-4(3H)-one level at 10 mg/kg, po qd at 8 hrs; format: ADME, organism-based; conditions: in vivo, read-out: Drug uptake
[11] = tested on: Nucleic Acid; test: Ratio of drug level in Sprague-Dawley rat brain to plasma assessed as 6-(4-chlorophenyl)-3-(4-((3S,4R)-3,4-dihydroxypyrrolidin-1-yl)-3-methoxyphenyl)pyrrolo[1,2-f][1,2,4]triazin-4(3H)-one level at 10 mg/kg, po qd; format: ADME, organism-based
[12] = target: hERG (KCNH2) (Homo sapiens, UniProt Q12809); test: Inhibition of human ERG at 1 uM by flux assay
[13] = tested on: Liver; test: Drug level in oral-dosed Sprague-Dawley rat liver treated with (2S)-1-(4-(6-(4-chlorophenyl)-4-oxopyrrolo[1,2-f][1,2,4]triazin-3(4H)-yl)-2-methoxyphenoxy)propan-2-yl 2-amino-3-methylbutanoate; format: ADME, tissue-based; conditions: in vivo
[14] = tested on: Plasma; test: Plasma concentration in Sprague-Dawley rat assessed as (R)-6-(4-chlorophenyl)-3-(4-(3-hydroxypyrrolidin-1-yl)-3-methoxyphenyl)pyrrolo[1,2-f][1,2,4]triazin-4(3H)-one level at 10 mg/kg, po qd at 8 hrs; format: ADME, organism-based; conditions: in vivo
[15] = tested on: Brain; test: Drug concentration in Sprague-Dawley rat brain assessed as (R)-6-(4-chlorophenyl)-3-(4-(3-hydroxypyrrolidin-1-yl)-3-methoxyphenyl)pyrrolo[1,2-f][1,2,4]triazin-4(3H)-one level at 10 mg/kg, po qd at 8 hrs; format: ADME, organism-based; conditions: in vivo, read-out: Drug uptake
[16] = tested on: Nucleic Acid; test: Ratio of drug level in Sprague-Dawley rat brain to plasma assessed as (R)-6-(4-chlorophenyl)-3-(4-(3-hydroxypyrrolidin-1-yl)-3-methoxyphenyl)pyrrolo[1,2-f][1,2,4]triazin-4(3H)-one level at 10 mg/kg, po qd; format: ADME, organism-based
[17] = tested on: Plasma; test: Plasma concentration in Sprague-Dawley rat assessed as 6-(4-chlorophenyl)-3-(4-((3,3-difluoro-1-hydroxycyclobutyl)methoxy)-3-methoxyphenyl)pyrrolo[1,2-f][1,2,4]triazin-4(3H)-one level at 10 mg/kg, po qd at 8 hrs; format: ADME, organism-based; conditions: in vivo
[18] = tested on: Brain; test: Drug concentration in Sprague-Dawley rat brain assessed as 6-(4-chlorophenyl)-3-(4-((3,3-difluoro-1-hydroxycyclobutyl)methoxy)-3-methoxyphenyl)pyrrolo[1,2-f][1,2,4]triazin-4(3H)-one level at 10 mg/kg, po qd at 8 hrs; format: ADME, organism-based; conditions: in vivo, read-out: Drug uptake
[19] = tested on: Nucleic Acid; test: Ratio of drug level in Sprague-Dawley rat brain to plasma assessed as 6-(4-chlorophenyl)-3-(4-((3,3-difluoro-1-hydroxycyclobutyl)methoxy)-3-methoxyphenyl)pyrrolo[1,2-f][1,2,4]triazin-4(3H)-one level at 10 mg/kg, po qd; format: ADME, organism-based
[20] = target: T2, Voltage-gated inwardly rectifying potassium channel KCNH2; test: Inhibition of human ERG expressed in CHO cells assessed as channel current by Q-patch electrophysiological assay; format: cell-based
[21] = tested on: Plasma; test: Plasma concentration in Sprague-Dawley rat assessed as (S)-6-(4-chlorophenyl)-3-(4-(3-(ethylsulfonyl)-2-hydroxypropoxy)-3-methoxyphenyl)pyrrolo[1,2-f][1,2,4]triazin-4(3H)-one level at 10 mg/kg, po qd at 8 hrs; format: ADME, organism-based; conditions: in vivo
[22] = tested on: Brain; test: Drug concentration in Sprague-Dawley rat brain assessed as (S)-6-(4-chlorophenyl)-3-(4-(3-(ethylsulfonyl)-2-hydroxypropoxy)-3-methoxyphenyl)pyrrolo[1,2-f][1,2,4]triazin-4(3H)-one level at 10 mg/kg, po qd at 8 hrs; format: ADME, organism-based; conditions: in vivo, read-out: Drug uptake
[23] = tested on: Nucleic Acid; test: Ratio of drug level in Sprague-Dawley rat brain to plasma assessed as (S)-6-(4-chlorophenyl)-3-(4-(3-(ethylsulfonyl)-2-hydroxypropoxy)-3-methoxyphenyl)pyrrolo[1,2-f][1,2,4]triazin-4(3H)-one level at 10 mg/kg, po qd; format: ADME, organism-based

T1 sequence (Q99705 whole entry): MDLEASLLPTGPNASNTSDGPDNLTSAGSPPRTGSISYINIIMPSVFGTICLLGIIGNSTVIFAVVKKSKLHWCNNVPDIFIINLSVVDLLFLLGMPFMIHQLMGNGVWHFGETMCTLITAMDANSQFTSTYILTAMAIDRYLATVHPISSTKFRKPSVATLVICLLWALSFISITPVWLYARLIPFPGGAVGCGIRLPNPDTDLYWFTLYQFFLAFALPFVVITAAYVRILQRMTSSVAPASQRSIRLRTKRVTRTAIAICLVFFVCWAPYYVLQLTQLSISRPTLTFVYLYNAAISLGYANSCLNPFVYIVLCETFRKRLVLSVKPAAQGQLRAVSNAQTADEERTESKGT
T2 sequence (Q12809 whole entry): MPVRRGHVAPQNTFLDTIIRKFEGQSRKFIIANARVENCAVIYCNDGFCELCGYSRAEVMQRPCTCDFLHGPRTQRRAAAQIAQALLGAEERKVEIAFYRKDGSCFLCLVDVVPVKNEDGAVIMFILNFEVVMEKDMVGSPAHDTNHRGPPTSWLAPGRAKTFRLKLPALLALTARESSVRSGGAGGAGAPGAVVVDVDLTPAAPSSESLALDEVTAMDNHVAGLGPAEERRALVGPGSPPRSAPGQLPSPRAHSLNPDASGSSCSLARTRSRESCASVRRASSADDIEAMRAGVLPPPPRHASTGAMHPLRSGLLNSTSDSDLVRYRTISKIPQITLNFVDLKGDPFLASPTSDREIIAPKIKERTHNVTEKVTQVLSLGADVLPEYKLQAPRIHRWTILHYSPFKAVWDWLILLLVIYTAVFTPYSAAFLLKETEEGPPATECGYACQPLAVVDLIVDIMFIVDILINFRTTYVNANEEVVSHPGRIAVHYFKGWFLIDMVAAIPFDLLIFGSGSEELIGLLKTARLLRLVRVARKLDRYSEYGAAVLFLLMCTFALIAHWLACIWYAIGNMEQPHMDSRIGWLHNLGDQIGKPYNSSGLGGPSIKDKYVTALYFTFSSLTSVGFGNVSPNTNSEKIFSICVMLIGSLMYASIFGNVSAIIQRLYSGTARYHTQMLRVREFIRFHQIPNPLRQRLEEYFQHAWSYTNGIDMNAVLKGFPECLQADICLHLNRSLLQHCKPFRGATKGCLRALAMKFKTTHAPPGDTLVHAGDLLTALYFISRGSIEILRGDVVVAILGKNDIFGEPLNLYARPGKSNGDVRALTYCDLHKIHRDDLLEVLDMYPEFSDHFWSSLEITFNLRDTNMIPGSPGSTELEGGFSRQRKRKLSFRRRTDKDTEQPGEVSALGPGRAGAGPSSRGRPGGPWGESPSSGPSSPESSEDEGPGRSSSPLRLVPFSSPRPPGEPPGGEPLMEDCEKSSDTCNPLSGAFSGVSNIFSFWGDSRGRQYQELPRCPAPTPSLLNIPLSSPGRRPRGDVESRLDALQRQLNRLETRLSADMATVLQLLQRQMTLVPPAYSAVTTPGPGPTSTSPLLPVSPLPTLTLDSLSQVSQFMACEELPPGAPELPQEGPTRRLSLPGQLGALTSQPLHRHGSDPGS
Chain of Melanin-concentrating hormone receptor 1 (Rattus norvegicus, UniProt P97639) (P97639 whole entry): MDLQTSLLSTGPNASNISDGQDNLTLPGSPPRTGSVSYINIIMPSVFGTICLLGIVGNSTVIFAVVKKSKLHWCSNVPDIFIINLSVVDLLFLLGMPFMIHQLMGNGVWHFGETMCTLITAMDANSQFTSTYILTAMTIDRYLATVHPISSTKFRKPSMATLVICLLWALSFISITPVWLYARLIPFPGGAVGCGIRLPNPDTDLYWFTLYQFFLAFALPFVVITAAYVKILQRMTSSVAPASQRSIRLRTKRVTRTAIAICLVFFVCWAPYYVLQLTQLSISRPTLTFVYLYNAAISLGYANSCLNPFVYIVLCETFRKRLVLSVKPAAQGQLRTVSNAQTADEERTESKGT
Chain of hERG (KCNH2) (Q12809 whole entry): as the sequence (Q12809 whole entry) above

SMILES | Ki [1] [nM] | Ki [2] [nM] | further results
CCS(=O)(=O)C[C@@H](O)COc1ccc(-n2cnn3cc(-c4ncc(Cl)cn4)cc3c2=O)cc1OC | 28 | 23 | 
COc1cc(-n2cnc3cc(-c4ccc(Cl)cc4)sc3c2=O)ccc1OCC(C)(O)CO (stereo unspecified) |  |  | Drug metabolism [3]: metabolite_detected
COc1cc(-n2cnn3cc(-c4ccc(Cl)cn4)cc3c2=O)ccc1OCC(O)C1CC1 (stereo unspecified) | 13 | 12 | 
COc1ccc(-n2cnn3cc(-c4ccc(Cl)cc4)cc3c2=O)cc1OC | 21 | 8 | 
COc1ccc(-n2cnn3cc(-c4ccc(Cl)cc4)nc3c2=O)cc1OC | 76 | 87 | 
CCS(=O)(=O)C[C@@H](O)COc1ccc(-n2cnn3cc(-c4ccc(Cl)cn4)cc3c2=O)cc1OC | 15 | 8.7 | 
COc1cc(-n2cnn3nc(-c4ccc(Cl)cc4)cc3c2=O)ccc1OCCN1CCCC1 | 0.7 | 0.5 | 
COc1cc(-n2cnn3cc(-c4ccc(Cl)cc4)cc3c2=O)ccc1N1C[C@@H](O)[C@@H](O)C1 | 3.1 | 2.3 | IC50 [4]: 5000 nM
COc1cc(-n2cnn3cc(-c4ccc(Cl)cc4)cc3c2=O)ccc1OCCN1CCCC1 | 0.5 | 0.4 | IC50 [5]: 5500 nM
COc1cc(-n2cnn3cc(-c4ccc(Cl)cn4)cc3c2=O)ccc1OCC(OC(=O)[C@@H](N)C(C)C)C1CC1 (stereo partly specified) |  |  | concentration [6]: 10200 nM; concentration [7]: 2040 nM; BPR [8]: 0.2
COc1cc(-n2cnn3cc(-c4ccc(Cl)cn4)cc3c2=O)ccc1N1CC[C@@H](O)C1 | 9.1 | 9.6 | 
O=c1c2cc(-c3ccc(Cl)cn3)cn2ncn1-c1ccc(N2CC[C@@H](O)C2)nc1 | 124 | 54 | 
CCS(=O)(=O)C[C@@H](O)COc1ccc(-n2cnn3cc(-c4ccc(Cl)cc4)cc3c2=O)cc1OC | 2.4 | 1.5 | 
COc1cc(-n2cnn3cc(-c4ccc(Cl)cc4)cc3c2=O)ccc1N1CC[C@@H](O)C1 | 4.8 | 4.7 | 
O=c1c2cc(-c3ccc(Cl)cc3)cn2ncn1-c1ccc(N2CC(O)C2)nc1 | 15 | 14 | IC50 [5]: 3300 nM
COc1cc(-n2cnn3cc(-c4ccc(Cl)cc4)cc3c2=O)ccc1N1C[C@H](OC(=O)[C@@H](N)C(C)C)[C@H](OC(=O)[C@@H](N)C(C)C)C1 |  |  | concentration [9]: 272 nM; concentration [10]: 210 nM; BPR [11]: 0.77
O=c1c2cc(-c3ccc(Cl)cc3)cn2ncn1-c1ccc(N2CC[C@@H](O)C2)nc1 | 5.3 | 5.5 | inhibition at 1 µM [12]: 26%
COc1cc(-n2cnn3cc(-c4ccc(Cl)cc4)nc3c2=O)ccc1OCC(O)C1CC1 (stereo unspecified) | 26 | 18 | 
COc1cc(-n2cnn3cc(-c4ccc(Cl)cc4)cc3c2=O)ccc1OCC(C)(C)O | 2.3 | 1.8 | IC50 [4]: 44 nM
COc1cc(-n2cnc3cc(-c4ccc(Cl)cc4)sc3c2=O)ccc1OCC(C)(O)C(=O)O (stereo unspecified) |  |  | Drug metabolism [3]: metabolite_detected

SMILES | Ki [1] [nM] | Ki [2] [nM] | further results
COc1cc(-n2cnn3cc(-c4ccc(Cl)cc4)cc3c2=O)ccc1OCC(O)C(=O)O (stereo unspecified) |  |  | Drug metabolism [13]: metabolite_detected
COc1cc(-n2cnn3cc(-c4ccc(Cl)cc4)cc3c2=O)ccc1OCC(O)CO (stereo unspecified) |  |  | Drug metabolism [13]: metabolite_detected
COc1ccc(-n2cnn3nc(-c4ccc(Cl)cc4)cc3c2=O)cc1OC | 86 | 106 | 
COc1cc(-n2cnn3cc(-c4ccc(Cl)cn4)cc3c2=O)ccc1OC[C@H](O)C1CC1 | 6.5 | 12 | 
COc1cc(-n2cnn3cc(-c4ncc(Cl)cn4)cc3c2=O)ccc1OCC1(O)CC(F)(F)C1 | 9 | 7.9 | 
COc1cc(-n2cnn3cc(-c4ccc(Cl)cc4)cc3c2=O)ccc1N1CC[C@@H](OC(=O)[C@@H](N)C(C)C)C1 |  |  | concentration [14]: 339 nM; concentration [15]: 966 nM; BPR [16]: 2.9
COc1cc(-n2cnn3cc(-c4ccc(Cl)cn4)cc3c2=O)ccc1OCC1(O)CC(F)(F)C1 | 6.5 | 6.5 | 
CNC1CCN(c2ccc(-n3cnn4cc(-c5ccc(Cl)cc5)cc4c3=O)cn2)C1 (stereo unspecified) | 0.4 | 0.3 | 
O=c1c2cc(-c3ccc(Cl)cc3)cn2ncn1-c1ccc(N2CCC(N3CC(O)C3)C2)nc1 (stereo unspecified) | 0.8 | 1.4 | IC50 [5]: 2000 nM
COc1cc(-n2cnn3cc(-c4ccc(Cl)cc4)cc3c2=O)ccc1OCC1(OC(=O)CN)CC(F)(F)C1 |  |  | concentration [17]: 477 nM; concentration [18]: 2380 nM; BPR [19]: 0.6
COc1cc(-n2cnn3nc(-c4ccc(Cl)cc4)cc3c2=O)ccc1OCC(O)C1CC1 (stereo unspecified) | 13 | 13 | 
COc1cc(-n2cnn3cc(-c4ccc(Cl)cc4)cc3c2=O)ccc1OCC(C)O (stereo unspecified) |  | 1.4 | 
O=c1c2cc(-c3ccc(Cl)cc3)cn2ncn1-c1ccc(N2CCC(O)CC2)nc1 | 12 | 18 | IC50 [20]: > 10000 nM; IC50 [5]: > 80000 nM
COc1cc(-n2cnn3cc(-c4ccc(Cl)cc4)nc3c2=O)ccc1OCCN1CCCC1 | 4.4 | 2.6 | 
CCS(=O)(=O)C[C@H](COc1ccc(-n2cnn3cc(-c4ccc(Cl)cc4)cc3c2=O)cc1OC)OC(=O)CN |  |  | concentration [21]: 1830 nM; concentration [22]: 175 nM; BPR [23]: 0.1
COc1cc(-n2cnn3cc(-c4ccc(Cl)cc4)cc3c2=O)ccc1OCC1(O)CC(F)(F)C1 | 3.4 | 3.8 | 
COc1cc(-n2cnn3cc(-c4ncc(Cl)cn4)cc3c2=O)ccc1OCC(O)C1CC1 (stereo unspecified) | 17 | 15 | 
COc1cc(-n2cnn3cc(-c4ncc(Cl)cn4)cc3c2=O)ccc1OCC(C)(C)O | 13 | 15 | 
COc1cc(-n2cnn3cc(-c4ccc(Cl)cc4)cc3c2=O)ccc1OCC(O)C1CC1 (stereo unspecified) | 3.5 |  | IC50 [4]: 300 nM
